Five compounds from the Kinase Knowledgebase extract (Sharma et al. 2016) can be followed below.

pIC50: −log10 of the molar value.

One assay concerns the target PIK3CG (human) (UniProt P48736). As to the kind of experiment: Inhibition of PIK3CG Kinase Activity.
Another assay has as its target PIK3CB (Human) (UniProt P42338). As to the kind of experiment: Inhibition of PIK3CB Kinase Activity.
Another assay deals with PIK3CD (Human) (UniProt O00329). As to the kind of experiment: Inhibition of PIK3CD Kinase Activity.
Chain of PIK3CD (Human) (O00329 whole entry, looked up): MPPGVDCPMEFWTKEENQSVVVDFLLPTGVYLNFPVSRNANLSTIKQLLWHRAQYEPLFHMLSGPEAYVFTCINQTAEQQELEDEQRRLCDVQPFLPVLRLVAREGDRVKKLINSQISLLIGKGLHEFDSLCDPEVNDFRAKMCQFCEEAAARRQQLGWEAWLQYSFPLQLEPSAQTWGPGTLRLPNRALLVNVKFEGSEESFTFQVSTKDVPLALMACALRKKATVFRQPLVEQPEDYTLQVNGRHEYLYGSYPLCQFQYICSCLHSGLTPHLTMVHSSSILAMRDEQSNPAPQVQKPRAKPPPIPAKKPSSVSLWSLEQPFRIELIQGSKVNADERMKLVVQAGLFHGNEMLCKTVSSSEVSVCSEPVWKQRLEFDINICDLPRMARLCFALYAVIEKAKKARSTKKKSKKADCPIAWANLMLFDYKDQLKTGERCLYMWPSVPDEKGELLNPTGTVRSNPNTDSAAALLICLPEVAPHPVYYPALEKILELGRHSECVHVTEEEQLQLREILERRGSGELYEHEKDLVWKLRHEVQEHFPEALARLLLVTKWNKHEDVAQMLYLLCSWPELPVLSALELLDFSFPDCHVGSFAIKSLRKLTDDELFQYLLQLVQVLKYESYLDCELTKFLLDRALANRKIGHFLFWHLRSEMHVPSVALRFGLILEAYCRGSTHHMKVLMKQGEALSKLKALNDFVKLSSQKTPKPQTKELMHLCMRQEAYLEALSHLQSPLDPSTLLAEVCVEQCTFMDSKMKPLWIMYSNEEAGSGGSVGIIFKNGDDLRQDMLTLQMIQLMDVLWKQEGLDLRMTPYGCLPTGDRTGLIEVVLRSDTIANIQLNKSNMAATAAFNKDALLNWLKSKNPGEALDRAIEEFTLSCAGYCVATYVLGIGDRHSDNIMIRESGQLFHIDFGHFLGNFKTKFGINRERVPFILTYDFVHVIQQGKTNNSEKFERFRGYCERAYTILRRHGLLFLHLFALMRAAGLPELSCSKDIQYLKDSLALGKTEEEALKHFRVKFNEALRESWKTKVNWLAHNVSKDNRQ
For a further assay, the target named is PIK3CA (human) (UniProt P42336). As to the kind of experiment: Inhibition of PIK3CA Kinase Activity.
Chain of PIK3CA (human) (P42336 whole entry, looked up): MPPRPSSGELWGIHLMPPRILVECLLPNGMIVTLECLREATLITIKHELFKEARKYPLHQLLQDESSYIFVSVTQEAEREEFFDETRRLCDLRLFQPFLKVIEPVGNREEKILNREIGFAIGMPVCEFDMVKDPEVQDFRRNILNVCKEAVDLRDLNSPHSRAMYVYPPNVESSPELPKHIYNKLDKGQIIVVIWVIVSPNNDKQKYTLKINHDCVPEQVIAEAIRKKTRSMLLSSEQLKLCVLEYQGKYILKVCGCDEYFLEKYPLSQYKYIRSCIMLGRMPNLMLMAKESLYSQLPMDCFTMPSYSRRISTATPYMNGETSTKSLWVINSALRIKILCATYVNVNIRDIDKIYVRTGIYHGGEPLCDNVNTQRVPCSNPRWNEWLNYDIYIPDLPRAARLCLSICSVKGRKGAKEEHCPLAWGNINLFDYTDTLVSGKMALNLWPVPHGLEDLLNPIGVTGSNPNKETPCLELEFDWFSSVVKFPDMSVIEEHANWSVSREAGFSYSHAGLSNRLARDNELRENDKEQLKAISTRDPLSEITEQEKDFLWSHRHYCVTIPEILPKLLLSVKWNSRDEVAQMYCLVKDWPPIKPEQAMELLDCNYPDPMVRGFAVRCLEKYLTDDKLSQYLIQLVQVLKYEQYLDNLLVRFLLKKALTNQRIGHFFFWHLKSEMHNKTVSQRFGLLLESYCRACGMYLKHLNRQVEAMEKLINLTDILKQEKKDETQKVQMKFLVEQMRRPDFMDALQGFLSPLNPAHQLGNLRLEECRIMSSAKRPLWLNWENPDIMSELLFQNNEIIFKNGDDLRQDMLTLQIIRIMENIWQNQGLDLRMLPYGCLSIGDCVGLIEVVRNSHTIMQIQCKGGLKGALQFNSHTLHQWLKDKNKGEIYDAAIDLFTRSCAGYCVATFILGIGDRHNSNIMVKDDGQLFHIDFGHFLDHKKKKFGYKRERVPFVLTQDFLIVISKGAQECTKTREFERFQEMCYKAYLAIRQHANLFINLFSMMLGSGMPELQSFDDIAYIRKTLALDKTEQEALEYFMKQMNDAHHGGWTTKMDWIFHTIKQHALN

Chain of PIK3CB (Human) (P42338 whole entry, looked up): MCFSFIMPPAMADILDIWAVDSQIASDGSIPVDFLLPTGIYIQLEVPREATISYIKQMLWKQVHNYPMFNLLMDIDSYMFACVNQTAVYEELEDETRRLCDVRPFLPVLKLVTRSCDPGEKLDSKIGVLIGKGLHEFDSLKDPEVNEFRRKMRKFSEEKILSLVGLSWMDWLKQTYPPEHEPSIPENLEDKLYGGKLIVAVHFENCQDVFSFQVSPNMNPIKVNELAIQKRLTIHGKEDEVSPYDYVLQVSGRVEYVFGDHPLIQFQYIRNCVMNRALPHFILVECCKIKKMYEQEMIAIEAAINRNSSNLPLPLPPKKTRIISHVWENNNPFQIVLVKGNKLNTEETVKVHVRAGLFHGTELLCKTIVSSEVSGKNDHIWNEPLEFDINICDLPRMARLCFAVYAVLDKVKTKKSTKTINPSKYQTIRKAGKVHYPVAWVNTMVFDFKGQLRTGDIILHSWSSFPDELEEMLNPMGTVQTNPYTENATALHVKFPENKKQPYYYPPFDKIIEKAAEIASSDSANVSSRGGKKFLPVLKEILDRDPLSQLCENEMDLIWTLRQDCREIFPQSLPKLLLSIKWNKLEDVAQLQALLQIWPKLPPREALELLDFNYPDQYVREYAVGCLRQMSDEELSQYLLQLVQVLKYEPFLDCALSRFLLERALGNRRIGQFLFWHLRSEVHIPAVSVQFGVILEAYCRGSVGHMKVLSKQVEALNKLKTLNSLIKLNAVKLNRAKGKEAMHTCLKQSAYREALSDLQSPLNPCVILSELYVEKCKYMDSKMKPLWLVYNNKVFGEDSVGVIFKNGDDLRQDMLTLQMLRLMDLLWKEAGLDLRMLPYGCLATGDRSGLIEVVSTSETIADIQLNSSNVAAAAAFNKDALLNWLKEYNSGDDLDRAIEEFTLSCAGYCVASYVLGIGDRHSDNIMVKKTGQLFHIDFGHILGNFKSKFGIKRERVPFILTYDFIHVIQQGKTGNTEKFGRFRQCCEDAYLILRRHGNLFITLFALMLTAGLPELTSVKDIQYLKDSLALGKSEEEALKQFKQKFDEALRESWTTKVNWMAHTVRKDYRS
Chain of PIK3CG (human) (P48736 whole entry, looked up): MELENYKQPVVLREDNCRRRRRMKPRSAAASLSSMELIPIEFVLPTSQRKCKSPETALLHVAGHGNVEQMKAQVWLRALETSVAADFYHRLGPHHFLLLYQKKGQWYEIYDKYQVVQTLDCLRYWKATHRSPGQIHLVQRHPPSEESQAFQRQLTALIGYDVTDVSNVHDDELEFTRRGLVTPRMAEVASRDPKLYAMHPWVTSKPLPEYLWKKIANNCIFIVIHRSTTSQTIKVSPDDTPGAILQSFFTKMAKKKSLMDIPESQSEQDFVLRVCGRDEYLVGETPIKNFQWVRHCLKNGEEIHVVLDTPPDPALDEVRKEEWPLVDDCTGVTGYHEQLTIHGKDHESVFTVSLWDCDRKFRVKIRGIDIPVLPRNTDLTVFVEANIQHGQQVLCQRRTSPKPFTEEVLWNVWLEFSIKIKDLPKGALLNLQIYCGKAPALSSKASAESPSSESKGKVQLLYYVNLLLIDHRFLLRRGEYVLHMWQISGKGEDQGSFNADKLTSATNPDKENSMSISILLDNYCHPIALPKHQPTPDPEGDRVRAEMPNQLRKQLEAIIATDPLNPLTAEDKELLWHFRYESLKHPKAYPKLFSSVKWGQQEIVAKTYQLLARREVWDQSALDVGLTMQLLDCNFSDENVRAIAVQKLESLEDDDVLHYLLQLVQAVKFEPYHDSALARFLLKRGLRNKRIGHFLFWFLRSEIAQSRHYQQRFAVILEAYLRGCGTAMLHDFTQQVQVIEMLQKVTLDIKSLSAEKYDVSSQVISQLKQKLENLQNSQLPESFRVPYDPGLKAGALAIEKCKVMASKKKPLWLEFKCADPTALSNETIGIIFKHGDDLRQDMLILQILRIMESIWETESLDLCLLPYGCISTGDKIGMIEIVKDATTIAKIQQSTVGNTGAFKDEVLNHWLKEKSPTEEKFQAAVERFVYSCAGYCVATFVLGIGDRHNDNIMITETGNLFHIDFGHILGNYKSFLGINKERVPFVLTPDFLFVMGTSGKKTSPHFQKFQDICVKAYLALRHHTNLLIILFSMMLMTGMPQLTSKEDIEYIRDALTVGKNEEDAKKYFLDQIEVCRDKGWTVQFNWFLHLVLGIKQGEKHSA

For `COc1cc(-c2ccc3nc(C)c(-c4cnc(N)c(C(F)(F)F)c4)n3n2)ccc1OC1CCNCC1`, the pIC50 on PIK3CG (human) was 5.93; at PIK3CB (Human) it was 5.98; at PIK3CD (Human), 6.82; against PIK3CA (human), 7.20.

`COc1ccc(-c2ccc3nc(C)c(-c4cccnc4)n3n2)cc1OC`: the pIC50 is 5.86 at PIK3CB (Human), 6.51 against PIK3CD (Human) and 7.23 on PIK3CA (human).

Take `COc1cccc(NC(=O)NCCCOc2ccc(-c3ccc4nc(C)c(-c5cnc(N)c(C(F)(F)F)c5)n4n3)cc2OC)c1`: the pIC50 against PIK3CA (human) was 6.03.

In the case of `COc1cc(-c2ccc3nc(C)c(-c4cnc(N)c(C(F)(F)F)c4)n3n2)ccc1OCCCNC(=O)c1ccc(F)c(F)c1`, the pIC50 against PIK3CA (human) was 5.45.

In turn, `COc1cc(-c2ccc3nc(C)c(-c4cnc(N)c(C(F)(F)F)c4)n3n2)ccc1OCCNC(=O)Nc1cccc(C(F)(F)F)c1` gave a pIC50 on PIK3CA (human) of 5.43.

Broadly, the pIC50 is −log10 of the IC50, conventionally taken in molar units. Low readings indicate a high IC50, high ones a low IC50.
